This passage reports IC50 results from patent US9873709B2 (priority 2013, dated 2018).

A word on the IC50: it is the midpoint of a concentration-inhibition curve.

The subject of this experiment is JAK1-dependent STAT6 phosphorylation downstream of IL-13 stimulation in TF-1 human erythroleukemia cells. The experiment in a line: cells. To be noted: TF-1, read-out: IL-13-pSTAT6 IC50.
For the molecule `CN1CCN(C(=O)C2CN(C(=O)c3ccc(Nc4nc5c(N6CCC(O)(c7ccc(Cl)cc7)CC6)cccn5n4)cc3)C2)CC1` [Example 1-165, [4-[[8-[4-(4-chlorophenyl)-4-hydroxy-1-piperidyl]-[1,2,4]triazolo[1,5-a]pyridin-2-yl]amino]phenyl]-[3-(4-methylpiperazine-1-carbonyl)azetidin-1-yl]methanone], the IC50 came out at 25.1 nM.
Next, `O=C(c1ccc(Nc2nc3c(N4CCC(O)(c5ccc(Cl)cc5)CC4)cccn3n2)cc1)N1CCN2CCCC2C1` (stereo not drawn) [Example 1-168, 3,4,6,7,8,8a-hexahydro-1H-pyrrolo[1,2-a]pyrazin-2-yl-[4-[[8-[4-(4-chlorophenyl)-4-hydroxy-1-piperidyl]-[1,2,4]triazolo[1,5-a]pyridin-2-yl]amino]phenyl] methanone]: 22.6 nM; `O=C(NC1CCNC1)c1ccc(Nc2nc3c(N4CCC(O)(c5ccc(Cl)cc5)CC4)cccn3n2)cc1` (stereo not drawn) [Example 1-176, 4-[[8-[4-(4-chlorophenyl)-4-hydroxy-1-piperidyl]-[1,2,4]triazolo[1,5-a]pyridin-2-yl]amino]-N-pyrrolidin-3-yl-benzamide]: 279 nM; `O=C(NC1CCCNC1)c1ccc(Nc2nc3c(N4CCC(O)(c5ccc(Cl)cc5)CC4)cccn3n2)cc1` (stereo not drawn) [Example 1-179, 4-[[8-[4-(4-chlorophenyl)-4-hydroxy-1-piperidyl]-[1,2,4]triazolo[1,5-a]pyridin-2-yl]amino]-N-(3-piperidyl)benzamide]: 84.3 nM.
Next, `O=C(NCC1CCNC1)c1ccc(Nc2nc3c(N4CCC(O)(c5ccc(Cl)cc5)CC4)cccn3n2)cc1` (stereo not drawn) [Example 1-180, 4-[[8-[4-(4-chlorophenyl)-4-hydroxy-1-piperidyl]-[1,2,4]triazolo[1,5-a]pyridin-2-yl]amino]-N-(pyrrolidin-3-ylmethyl)benzamide]: 322 nM; `O=C(NC1CCNCC1)c1ccc(Nc2nc3c(N4CCC(O)(c5ccc(Cl)cc5)CC4)cccn3n2)cc1` [Example 1-181, 4-[[8-[4-(4-chlorophenyl)-4-hydroxy-1-piperidyl]-[1,2,4]triazolo[1,5-a]pyridin-2-yl]amino]-N-(4-piperidyl)benzamide]: 181 nM.
As to `O=C(NCC1CCCNC1)c1ccc(Nc2nc3c(N4CCC(O)(c5ccc(Cl)cc5)CC4)cccn3n2)cc1` (stereo not drawn) [Example 1-183, 4-[[8-[4-(4-chlorophenyl)-4-hydroxy-1-piperidyl]-[1,2,4]triazolo[1,5-a]pyridin-2-yl]amino]-N-(3-piperidylmethyl) benzamide], the IC50 is 536 nM.
With `O=C(NCC1CCNCC1)c1ccc(Nc2nc3c(N4CCC(O)(c5ccc(Cl)cc5)CC4)cccn3n2)cc1` [Example 1-184, 4-[[8-[4-(4-chlorophenyl)-4-hydroxy-1-piperidyl]-[1,2,4]triazolo[1,5-a]pyridin-2-yl]amino]-N-(4-piperidylmethyl)], the IC50 came to 127 nM.
Next, `O=C(NCCN1CCNCC1)c1ccc(Nc2nc3c(N4CCC(O)(c5ccc(Cl)cc5)CC4)cccn3n2)cc1` [Example 1-187]: 462 nM.
Next, `O=C(NCC1CNCCO1)c1ccc(Nc2nc3c(N4CCC(O)(c5ccc(Cl)cc5)CC4)cccn3n2)cc1` (stereo not drawn) [Example 1-188, 4-[[8-[4-(4-chlorophenyl)-4-hydroxy-1-piperidyl]-[1,2,4]triazolo[1,5-a]pyridin-2-yl]amino]-N-(morpholin-2-ylmethyl)benzamide]: 34.7 nM.
With `NCC1CCN(C(=O)c2ccc(Nc3nc4c(N5CCC(O)(c6ccc(Cl)cc6)CC5)cccn4n3)cc2)CC1` [Example 1-193, [4-(aminomethyl)-1-piperidyl]-[4-[[8-[4-(4-chlorophenyl)-4-hydroxy-1-piperidyl]-[1,2,4]triazolo[1,5-a]pyridin-2-yl]amino]phenyl] methanone] the figure was 249 nM; with `O=C(c1ccc(Nc2nc3c(N4CCC(O)(c5ccc(Cl)cc5)CC4)cccn3n2)cc1)N1CCNCC1CO` (stereo not drawn) [Example 1-196, [4-[[8-[4-(4-chlorophenyl)-4-hydroxy-1-piperidyl]-[1,2,4]triazolo[1,5-a]pyridin-2-yl]amino]phenyl]-[2-(hydroxymethyl)piperazin-1-yl]methanone], 53.1 nM; with `O=C(c1ccc(Nc2nc3c(N4CCC(O)(c5ccc(Cl)cc5)CC4)cccn3n2)cc1)N1CC2CNCC2C1` (stereo not drawn) [Example 1-197, 2,3,3a,4,6,6a-hexahydro-1H-pyrrolo[3,4-c]pyrrol-5-yl-[4-[[8-[4-(4-chlorophenyl)-4-hydroxy-1-piperidyl]-[1,2,4]triazolo[1,5-a]pyridin-2-yl]amino]phenyl] methanone], 158 nM.
Turning to `O=C(N[C@H]1CCCNC1)c1ccc(Nc2nc3c(N4CCC(O)(c5ccc(Cl)cc5)CC4)cccn3n2)cc1` [Example 1-198, 4-[[8-[4-(4-chlorophenyl)-4-hydroxy-1-piperidyl]-[1,2,4]triazolo[1,5-a]pyridin-2-yl]amino]-N-[(3S)-3-piperidyl]benzamide], the IC50 turned out to be 68.5 nM.
Take `O=C(c1ccc(Nc2nc3c(N4CCC(O)(c5ccc(Cl)cc5)CC4)cccn3n2)cc1)N1CC2(CCNCC2)C1` [Example 1-199, [4-[[8-[4-(4-chlorophenyl)-4-hydroxy-1-piperidyl]-[1,2,4]triazolo[1,5-a]pyridin-2-yl]amino]phenyl]-(2,7-diazaspiro[3.5]nonan-2-yl)methanone]: the IC50 was determined as 106 nM.
With `O=C(c1ccc(Nc2nc3c(N4CCC(O)(c5ccc(Cl)cc5)CC4)cccn3n2)cc1)N1CC2(CNC2)C1` [Example 1-203, [4-[[8-[4-(4-chlorophenyl)-4-hydroxy-1-piperidyl]-[1,2,4]triazolo[1,5-a]pyridin-2-yl]amino]phenyl]-(2,6-diazaspiro[3.3]heptan-2-yl)methanone] the figure was 342 nM; with `O=C(c1ccc(Nc2nc3c(N4CCC(O)(c5ccc(Cl)cc5)CC4)cccn3n2)cc1)N1CCC2(CNC2)C1` [Example 1-205, [4-[[8-[4-(4-chlorophenyl)-4-hydroxy-1-piperidyl]-[1,2,4]triazolo[1,5-a]pyridin-2-yl]amino]phenyl]-(2,6-diazaspiro[3.4]octan-6-yl)methanone], 522 nM; with `O=C(c1ccc(Nc2nc3c(N4CCC(O)(c5ccc(Cl)cc5)CC4)cccn3n2)cc1)N1CCC2(CCNC2)C1` (stereo not drawn) [Example 1-207, [4-[[8-[4-(4-chlorophenyl)-4-hydroxy-1-piperidyl]-[1,2,4]triazolo[1,5-a]pyridin-2-yl]amino]phenyl]-(2,7-diazaspiro[4.4]nonan-2-yl)methanone], 192 nM.
With `O=C(c1ccc(Nc2nc3c(N4CCC(O)(c5ccc(Cl)cc5)CC4)cccn3n2)cc1)N1CC2(CCCNC2)C1` [Example 1-210, [4-[[8-[4-(4-chlorophenyl)-4-hydroxy-1-piperidyl]-[1,2,4]triazolo[1,5-a]pyridin-2-yl]amino]phenyl]-(2,8-diazaspiro[3.5]nonan-2-yl)methanone] the figure was 43.5 nM.
With `O=C(c1ccc(Nc2nc3c(N4CCC(O)(c5ccc(Cl)cc5)CC4)cccn3n2)cc1)N1CCC2(CCCNC2)C1` (stereo not drawn) [Example 1-212, [4-[[8-[4-(4-chlorophenyl)-4-hydroxy-1-piperidyl]-[1,2,4]triazolo[1,5-a]pyridin-2-yl]amino]phenyl]-(2,9-diazaspiro[4.5]decan-2-yl)methanone] the figure was 196 nM.
Take `O=C(c1ccc(Nc2nc3c(N4CCC(O)(c5ccc(Cl)cc5)CC4)cccn3n2)cc1)N1CCC2(CCNCC2)CC1` [Example 1-218, [4-[[8-[4-(4-chlorophenyl)-4-hydroxy-1-piperidyl]-[1,2,4]triazolo[1,5-a]pyridin-2-yl]amino]phenyl]-(3,9-diazaspiro[5.5]undecan-3-yl)methanone]: the concentration for half-maximal inhibition (IC50) was found to be 165 nM.
With `O=C(NCC1COC2(CCNCC2)C1)c1ccc(Nc2nc3c(N4CCC(O)(c5ccc(Cl)cc5)CC4)cccn3n2)cc1` (stereo not drawn) [Example 1-220, 4-[[8-[4-(4-chlorophenyl)-4-hydroxy-1-piperidyl]-[1,2,4]triazolo[1,5-a]pyridin-2-yl]amino]-N-(1-oxa-8-azaspiro[4.5]decan-3-ylmethyl)benzamide], the IC50 turned out to be 637 nM.
Next, `O=C(NC1COC2(CCNCC2)C1)c1ccc(Nc2nc3c(N4CCC(O)(c5ccc(Cl)cc5)CC4)cccn3n2)cc1` (stereo not drawn) [Example 1-221, 4-[[8-[4-(4-chlorophenyl)-4-hydroxy-1-piperidyl]-[1,2,4]triazolo[1,5-a]pyridin-2-yl]amino]-N-(1-oxa-8-azaspiro[4.5]decan-3-yl)benzamide]: 866 nM; `O=C(c1ccc(Nc2nc3c(N4CCC(O)(c5ccc(Cl)cc5)CC4)cccn3n2)cc1)N1CC2(CCNC2)C1` [Example 1-224, [4-[[8-[4-(4-chlorophenyl)-4-hydroxy-1-piperidyl]-[1,2,4]triazolo[1,5-a]pyridin-2-yl]amino]phenyl]-(2,7-diazaspiro[3.4]octan-2-yl)methanone]: 111 nM.
Next, `O=C(c1ccc(Nc2nc3c(N4CCC(O)(c5ccc(Cl)cc5)CC4)cccn3n2)cc1)N1CCOC2(CCCNC2)C1` (stereo not drawn) [Example 1-225, [4-[[8-[4-(4-chlorophenyl)-4-hydroxy-1-piperidyl]-[1,2,4]triazolo[1,5-a]pyridin-2-yl]amino]phenyl]-(1-oxa-4,8-diazaspiro[5.5]undecan-4-yl)methanone]: 30.8 nM; `O=C(c1ccc(Nc2nc3c(N4CCC(O)(c5ccc(Cl)cc5)CC4)cccn3n2)cc1)N1CCC2(CCCN2)CC1` [Example 1-226, [4-[[8-[4-(4-chlorophenyl)-4-hydroxy-1-piperidyl]-[1,2,4]triazolo[1,5-a]pyridin-2-yl]amino]phenyl]-(1,8-diazaspiro[4.5]decan-8-yl)methanone]: 79.4 nM; `O=C(c1ccc(Nc2nc3c(N4CCC(O)(c5ccc(Cl)cc5)CC4)cccn3n2)cc1)N1CCC2(CC1)CNCCO2` [Example 1-230, [4-[[8-[4-(4-chlorophenyl)-4-hydroxy-1-piperidyl]-[1,2,4]triazolo[1,5-a]pyridin-2-yl]amino]phenyl]-(1-oxa-4,9-diazaspiro[5.5]undecan-9-yl)methanone]: 58.1 nM.
